From US20210253528A1, “CHEMICAL COMPOUNDS” (GLAXOSMITHKLINE INTELLECTUAL PROPERTY DEVELOPMENT LIMITED, priority 2018, published 2021)

Test system: ATF4 translation
Experiment: ATF4 Cell Based Assay (ATF4 reporter assay, NanoLuc luciferase fused to ATF4 5'-UTR, thapsigargin-induced stress)
Conditions: SH-SY5Y-ATF4-NanoLuc cells, 200 nM thapsigargin, overnight (typically 19 hours); average of a set of two or more experimental runs; read-out: average ATF4 pathway inhibitory activity IC50
Text: The ATF4 reporter assay measures the effect of thapsigargin-induced cellular stress on ATF4 expression. For this reporter assay, a stable cell line was created by transfecting SH-SY5Y cells with a plasmid containing the NanoLuc® luciferase gene fused to the 5′-UTR of ATF4, under the control of the CMV promoter. The ATF4 5′-UTR contains two open reading frames which mediate the cellular stress-dependent translation of the reporter gene. Clones stably expressing the reporter construct were isolated and selected based on the luminescence response to thapsigargin and inhibition of this signal by test compounds. Briefly, SH-SY5Y-ATF4-NanoLuc cells were challenged with thapsigargin to determine the stress effect with or without test compounds. Cells were propagated in DMEM/F12 growth media containing 10% FBS (Invitrogen 10999-141) and 0.5 mg/mL geneticin (Corning 30-234-CR). Aliquots of cells were cryopreserved in dialyzed FBS containing 10% DMSO.
Test compounds were prepared in neat DMSO at a concentration of 10 mM. Assay plates were prepared by adding 250 nL of compound stock solution to test wells in a 384-well white tissue culture-treated plate (Greiner 781073). For inhibition curves, compounds were diluted using a three-fold serial dilution and tested at 11 concentrations (10 μM-0.17 nM).
Aliquots of frozen cells were thawed with a 37C water bath. The cells were washed using DMEM/F12 (1:1) (1×) (Gibco 11039-021). The cells were re-suspended in the DMEM/F12 and the suspension was counted. A final suspension of 7.5e5 cells/ml was prepared.
A volume of 20 uL of cell suspension was added to compound plates (15K cells/well). Cells were incubated for 1 hour at 37° C. A volume of 5 μL of 1 uM Thapsigargin solution was added to each well, resulting in a final concentration of 200 nM. Assay plates were then incubated at 37 C overnight, typically for 19 hours.
The measurement of luciferase produced by the ATF4 constructs was measured using Nano-Glo Luciferase Assay reagent, Promega N1150. (The components of the Promega kit are: Nano-Glo® Luciferase Assay Substrate, N113C, Nano-Glo® Luciferase Assay Buffer, N1128.) The buffer is brought to room temperature, and a solution of 50:1 buffer:substrate were prepared. The cell plates were equilibrated to room temperature. A volume of 20 microliters/well of the mixed Nano-Glo reagent were dispensed into assay and control wells. The plates were read on a Viewlux plate reader.

SMILES | IC50 [nM]
O=C(COc1ccc(Cl)c(F)c1)NC12CC(COC(=O)Nc3ccc(Cl)c(Cl)c3)(C1)C2 [Example 10, (3-(2-(4-chloro-3-fluorophenoxy)acetamido)bicyclo [1.1.1]pentan-1-yl)methyl (3,4-dichlorophenyl) carbamate] | 25
O=C(COc1ccc(Cl)cc1)NC12CC(COC(=O)Nc3ccc(Cl)cc3)(C1)C2 [Example 1, (3-(2-(4-Chlorophenoxy)acetamido)bicyclo[1.1.1]pentan-1-yl)methyl (4-chlorophenyl)carbamate] | 25
O=C(COc1ccc(Cl)cc1)NC12CC(CNC(=S)Nc3ccc(Cl)cc3)(C1)C2 [Example 6a, 2-(4-chlorophenoxy)-N-(3-((3-(4-chlorophenyl)thioureido)methyl)bicyclo[1.1.1]pentan-1-yl)acetamide] | 126
O=C(COc1ccc(Cl)c(C(F)(F)F)c1)NC12CC(COC(=O)Nc3ccc(Cl)c(F)c3)(C1)C2 [Example 8a, (3-(2-(4-chloro-3-(trifluoromethyl)phenoxy)acetamido)bicyclo[1.1.1]pentan-1-yl)methyl (4-chloro-3-fluorophenyl)carbamate] | 79
O=C(COc1ccc(Cl)c(F)c1)NC12CC(COC(=O)Nc3ccc(Cl)cc3)(C1)C2 [Example 3, (3-(2-(4-chloro-3-fluorophenoxy)acetamido)bicyclo[1.1.1]pentan-1-yl)methyl (4-chlorophenyl)carbamate] | 25
O=C(COc1ccc(Cl)cc1)NC12CC(CNC(=O)Nc3ccc(Cl)cc3)(C1)C2 [Example 4, 2-(4-Chlorophenoxy)-N-(3-((3-(4-chlorophenyl)ureido)methyl)bicyclo[1.1.1]pentan-1-yl)acetamide] | 10

The next lines start with the values.

IC50 [nM] | SMILES
80 | O=C(COc1ccc(Cl)c(F)c1)NC12CCC(COC(=O)Nc3ccc(Cl)c(F)c3)(C1)C2 [Example 26, (4-(2-(4-chloro-3-fluorophenoxy)acetamido)bicyclo[2.1.1]hexan-1-yl)methyl (4-chloro-3-fluorophenyl) carbamate]
6 | O=C(COc1ccc(Cl)cc1)NC12CC(CNC(=O)Nc3ccc(Cl)c(Cl)c3)(C1)C2 [Example 22, 2-(4-chlorophenoxy)-N-(3-((3-(3,4-dichlorophenyl)ureido)methyl)bicyclo[1.1.1]pentan-1-yl)acetamide]
158 | O=C(COc1ccc(F)c(F)c1)NC12CC(COC(=O)Nc3ccc(F)c(F)c3)(C1)C2 [Example 16, (3-(2-(3,4-difluorophenoxy)acetamido)bicyclo [1.1.1]pentan-1-yl)methyl (3,4-difluorophenyl) carbamate]
79 | O=C(COc1ccc(F)cc1)NC12CC(COC(=O)Nc3ccc(Cl)c(F)c3)(C1)C2 [Example 14, (3-(2-(4-fluorophenoxy)acetamido)bicyclo [1.1.1]pentan-1-yl)methyl (4-chloro-3-fluorophenyl) carbamate]
1260 | O=C(CNc1ccc(Cl)cc1)NC12CC(COC(=O)Nc3ccc(Cl)c(F)c3)(C1)C2 [Example 18, (3-(2-((4-chlorophenyl)amino)acetamido)bicyclo [1.1.1]pentan-1-yl) methyl (4-chloro-3-fluorophenyl carbamate]
32 | O=C(COc1ccc(Cl)c(Cl)c1)NC12CC(COC(=O)Nc3ccc(Cl)cc3)(C1)C2 [Example 12, (3-(2-(3,4-dichlorophenoxy)acetamido)bicyclo [1.1.1]pentan-1-yl)methyl (4-chlorophenyl) carbamate]
158 | O=C(Nc1ccc(Cl)c(F)c1)OCC12CC(NC(=O)c3ccc4c(c3)OC(F)(F)O4)(C1)C2 [Example 19, (3-(2,2-difluorobenzo[d] [1,3]dioxole-5-carboxamido)bicyclo[1.1.1]pentan-1-yl)methyl (4-chloro-3-fluorophenyl) carbamate]
8 | O=C(COc1ccc(Cl)c(F)c1)NC12CC(CNC(=O)Nc3ccc(Cl)c(Cl)c3)(C1)C2 [Example 23, 2-(4-chloro-3-fluorophenoxy)-N-(3-((3-(3,4-dichlorophenyl)ureido)methyl)bicyclo[1.1.1]pentan-1-yl)acetamide]
